The results in this text go back to patent US10870647B2, “Imidazopyridine derivative, method for preparing same, and pharmaceutical composition containing same as active ingredient for preventing or treating cancer” (DAEGU-GYEONGBUK MEDICAL INNOVATION FOUNDATION, priority 2016, dated 2020).

Common to all, as to assay: Kinase selectivity, scanMAX Kinase assay panel (DiscoverX), % control at 1 uM
Common to all, as to format: binding

Assay [1] addresses T1, scanMAX Kinase assay panel (Homo sapiens, UniProt P00533, DEL752-759).
T1 construct: purchased DiscoverX
Particulars: EGFR (S752-I759del); 1 uM; read-out: Percent Control (%). The method, boiled down:
(§1)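 Activity was called for kinases showing % control under 35, calculated from compound signal relative to positive and negative controls. Each compound screened at 1 uM against the DiscoverX scanMAX panel.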

Assay [2] concerns the target T2, scanMAX Kinase assay panel (Homo sapiens, UniProt P53778).
T2 construct: purchased DiscoverX
T2 sequence (P53778 1-367): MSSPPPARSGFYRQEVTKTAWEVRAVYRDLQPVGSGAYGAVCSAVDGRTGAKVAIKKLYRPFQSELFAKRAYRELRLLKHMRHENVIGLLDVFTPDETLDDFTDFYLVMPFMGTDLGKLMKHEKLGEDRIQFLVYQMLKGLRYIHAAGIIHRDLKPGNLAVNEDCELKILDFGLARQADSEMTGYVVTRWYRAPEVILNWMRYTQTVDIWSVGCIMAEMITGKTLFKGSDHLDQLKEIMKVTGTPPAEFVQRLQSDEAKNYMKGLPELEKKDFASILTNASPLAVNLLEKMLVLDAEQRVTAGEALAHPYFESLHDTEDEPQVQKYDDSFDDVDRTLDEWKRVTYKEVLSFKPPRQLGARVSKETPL
As to conditions: p38-gamma; 1 uM; read-out: Percent Control (%). A digest of the protocol:
as §1

Assay [3] has as its target T3, scanMAX Kinase assay panel (Homo sapiens, UniProt Q06418).
T3 construct: purchased DiscoverX
T3 sequence (Q06418 41-890): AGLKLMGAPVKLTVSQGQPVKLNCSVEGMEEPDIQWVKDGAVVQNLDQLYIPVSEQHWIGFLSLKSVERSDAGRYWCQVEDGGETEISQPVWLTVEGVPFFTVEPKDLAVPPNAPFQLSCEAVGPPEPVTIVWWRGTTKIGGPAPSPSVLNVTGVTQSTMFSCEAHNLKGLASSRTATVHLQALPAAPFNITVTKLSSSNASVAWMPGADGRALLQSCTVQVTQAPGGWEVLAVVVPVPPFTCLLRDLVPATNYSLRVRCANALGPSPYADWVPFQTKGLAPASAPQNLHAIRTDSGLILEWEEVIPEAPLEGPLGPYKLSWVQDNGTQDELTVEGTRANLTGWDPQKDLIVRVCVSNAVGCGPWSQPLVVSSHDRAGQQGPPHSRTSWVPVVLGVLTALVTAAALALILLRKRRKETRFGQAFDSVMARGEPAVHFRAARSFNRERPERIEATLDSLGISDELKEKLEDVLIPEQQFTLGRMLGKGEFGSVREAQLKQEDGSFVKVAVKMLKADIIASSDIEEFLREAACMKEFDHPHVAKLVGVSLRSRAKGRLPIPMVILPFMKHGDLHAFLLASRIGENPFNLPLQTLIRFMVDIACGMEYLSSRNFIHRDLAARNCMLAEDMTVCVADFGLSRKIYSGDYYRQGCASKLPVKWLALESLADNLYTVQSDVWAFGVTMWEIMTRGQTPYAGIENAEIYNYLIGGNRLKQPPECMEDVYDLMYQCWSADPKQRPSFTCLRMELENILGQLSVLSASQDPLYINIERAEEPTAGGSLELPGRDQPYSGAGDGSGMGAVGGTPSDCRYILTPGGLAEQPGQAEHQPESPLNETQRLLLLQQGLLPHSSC
As to conditions: TYRO3; 1 uM; read-out: Percent Control (%). The method, boiled down:
as §1

Assay [4] addresses T4, scanMAX Kinase assay panel (Homo sapiens, UniProt Q9Y616).
T4 construct: purchased DiscoverX
T4 sequence (Q9Y616 1-596): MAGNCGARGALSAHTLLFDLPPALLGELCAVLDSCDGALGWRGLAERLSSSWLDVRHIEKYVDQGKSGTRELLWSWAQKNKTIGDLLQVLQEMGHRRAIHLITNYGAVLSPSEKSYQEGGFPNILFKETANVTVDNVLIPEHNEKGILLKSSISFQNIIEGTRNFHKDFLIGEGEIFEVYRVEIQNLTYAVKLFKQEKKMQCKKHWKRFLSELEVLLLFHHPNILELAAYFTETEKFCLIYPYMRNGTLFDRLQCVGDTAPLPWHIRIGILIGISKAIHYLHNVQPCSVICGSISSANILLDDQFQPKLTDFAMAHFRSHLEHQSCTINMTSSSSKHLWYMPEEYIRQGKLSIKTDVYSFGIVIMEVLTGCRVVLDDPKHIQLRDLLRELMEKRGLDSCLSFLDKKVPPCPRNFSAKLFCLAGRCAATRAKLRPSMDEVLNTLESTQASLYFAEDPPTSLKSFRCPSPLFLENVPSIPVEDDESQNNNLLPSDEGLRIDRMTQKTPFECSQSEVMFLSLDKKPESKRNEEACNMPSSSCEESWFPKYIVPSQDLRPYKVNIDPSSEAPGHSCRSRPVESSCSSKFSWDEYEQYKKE
Particulars: IRAK3; 1 uM; read-out: Percent Control (%). A digest of the protocol:
as §1

T1 sequence (P00533 with tags, fused parts or gaps DEL752-759): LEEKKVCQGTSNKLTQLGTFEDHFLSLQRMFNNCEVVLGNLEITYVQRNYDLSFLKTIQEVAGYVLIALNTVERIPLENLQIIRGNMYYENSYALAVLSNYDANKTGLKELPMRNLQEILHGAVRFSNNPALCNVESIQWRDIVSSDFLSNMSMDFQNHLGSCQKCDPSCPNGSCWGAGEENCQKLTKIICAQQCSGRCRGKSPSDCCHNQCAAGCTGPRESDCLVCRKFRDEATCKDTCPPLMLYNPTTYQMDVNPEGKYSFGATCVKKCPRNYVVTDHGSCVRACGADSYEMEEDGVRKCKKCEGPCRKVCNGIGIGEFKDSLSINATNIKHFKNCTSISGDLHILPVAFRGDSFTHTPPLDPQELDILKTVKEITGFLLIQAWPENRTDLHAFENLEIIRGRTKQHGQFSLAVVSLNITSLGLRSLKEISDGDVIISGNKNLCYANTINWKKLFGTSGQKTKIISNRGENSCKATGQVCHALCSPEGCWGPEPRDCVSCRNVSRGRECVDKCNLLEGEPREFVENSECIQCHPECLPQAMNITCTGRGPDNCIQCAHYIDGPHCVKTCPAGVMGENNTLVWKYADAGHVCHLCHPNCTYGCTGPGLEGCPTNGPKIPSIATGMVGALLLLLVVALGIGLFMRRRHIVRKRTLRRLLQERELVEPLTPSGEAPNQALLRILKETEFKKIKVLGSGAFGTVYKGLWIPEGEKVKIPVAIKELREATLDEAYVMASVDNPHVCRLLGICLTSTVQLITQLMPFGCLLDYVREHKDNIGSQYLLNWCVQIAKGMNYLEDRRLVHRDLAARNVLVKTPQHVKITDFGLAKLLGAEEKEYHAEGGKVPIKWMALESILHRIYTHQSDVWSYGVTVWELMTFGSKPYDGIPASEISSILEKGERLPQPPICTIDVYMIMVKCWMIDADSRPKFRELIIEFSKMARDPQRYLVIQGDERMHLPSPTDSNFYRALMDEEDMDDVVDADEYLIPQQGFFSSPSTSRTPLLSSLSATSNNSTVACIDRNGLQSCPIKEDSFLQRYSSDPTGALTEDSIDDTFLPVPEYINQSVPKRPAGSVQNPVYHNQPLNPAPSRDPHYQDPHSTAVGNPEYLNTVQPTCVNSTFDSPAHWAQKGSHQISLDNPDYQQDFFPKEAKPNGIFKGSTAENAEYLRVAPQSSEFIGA

With `Cc1ccc(C(=O)Nc2ccc(CN3CCN(C)CC3)c(C(F)(F)F)c2)cc1C#Cc1cnc2c(Nc3cnn(C)c3)cccn12` [Example 1, 4-methyl-3-((8-((1-methyl-1H-pyrazol-4-yl)amino)imidazo[1,2-a]pyridin-3-yl)ethynyl)-N-(4-((4-methylpiperazin-1-yl)methyl)-3-(trifluoromethyl)phenyl)benzamide], the remaining binding at 1 µM was 7% in assay [1], 18% in assay [2], 21% in assay [3] and 84% in assay [4].

As to `Cc1cn(-c2cc(NC(=O)c3ccc(C)c(C#Cc4cnc5c(Nc6cnn(C)c6)cccn45)c3)cc(C(F)(F)F)c2)cn1` [Example 12, 4-methyl-N-(3-(4-methyl-1H-imidazol-1-yl)-5-(trifluoromethyl)phenyl)-3-((8-((1-methyl-1H-pyrazol-4-yl)amino)imidazo[1,2-a]pyridin-3-yl)ethynyl)benzamide], the remaining binding at 1 µM in assay [1] was 8%; in assay [2] it was 55%; in assay [3], 42%; in assay [4], 72%.

`Cc1ccc(NC(=O)C2(C(=O)Nc3ccc(F)cc3)CC2)cc1C#Cc1cnc2c(Nc3cnn(C(C)C)c3)cccn12` [Example 78]: the remaining binding at 1 µM in assay [1] turned out to be 100%; in assay [2], 100%; in assay [3], 95%; in assay [4] it was 87%.
